The target in one test is MC4 receptor (Homo sapiens, UniProt P32245). Kind of test: MC4 functional agonist potency (EC50), assay protocol E of US2005/0176772 / WO 2005/077935. To be noted: functional potency at the MC4 receptor. Format: cell-based. The procedure: The compounds of formula (I) of the present invention have utility as MCR4 agonists in the treatment of various disease states.
MC5 and MC4 EC50 activity was determined as described by assay protocols D and E, respectively, in US2005/0176772 (pages 28-30).

The target in test [1] is T1, MC4 receptor (MC4R) (Homo sapiens, UniProt P32245).
T1 construct: expressed in transfected cells; host or cells: CHO-CRE MC4R cells (membranes)
The experiment in a line: Nle4, D-Phe7-α-MSH inhibition at the MC4 receptor (SPA competition binding vs [125I] Nle4, D-Phe7-α-MSH). To be noted: vs 0.06 nM [125I] Nle4, D-Phe7-α-MSH, CHO-CRE MC4R cell membranes. The source says:
Nle4, D-Phe7-α-MSH Inhibition at the MC4 Receptor
Nle4, Nle4, D-Phe7-α-MSH is a stable analogue of melanocyte-stimulating hormone (MSH), which is an agonist at the MC4 receptor (MC4R). Compounds can be evaluated for their ability to inhibit Nle4, Nle4, D-Phe7-α-MSH binding to membranes from cells expressing the MC4R using a competition binding assay versus [^125I] Nle4, D-Phe7-α-MSH.
Cells expressing the MC4R were subject to homogenisation and the membrane fragment isolated by differential centrifugation. CHO-CRE MC4R cell membranes were coupled to PVT-PEI-WGA SPA Beads type A for 2 hours, spun at 1000 RPM for 5 mins and suspended to a concentration of 300 ug bead/ml (0.15 ug membrane, 15 ug bead per well). Bead/membrane mix was incubated with 0.06 nM [^125I] Nle4, D-Phe7-α-MSH and 11 half-log concentrations of competitor ligand, in duplicate, in a total volume of 50 μl buffer per well (25 mM HEPES, 1 mM MgCl2, 2.5 mM CaCl2, 1% Pluronic F68, 1 complete EDTA protease inhibitor tablet/50 ml pH7). Non-specific binding was determined by the inclusion of 100 nM SHU9119. The reaction was initiated by the addition of bead/membranes and plates were incubated at room temperature for 12 hours (the first hour on a plate shaker), after which the amount of radioactivity present was determined using a Wallac plate counter. Ki values were determined by data analysis using appropriate software.

The target of the next test is T2, MC3 receptor (MC3R) (Homo sapiens, UniProt P41968).
T2 construct: expressed in transfected cells; host or cells: CHO-CRE MC3R cells (membranes)
The experiment in a line: Nle4, D-Phe7-α-MSH inhibition at the MC3 receptor (SPA competition binding). To be noted: vs 0.06 nM Nle4, D-Phe7-α-MSH, CHO-CRE MC3R cell membranes. The source says:
Nle4, D-Phe7-α-MSH Inhibition at the MC3 Receptor
Nle4, D-Phe7-α-MSH is a stable analogue of melanocyte-stimulating hormone (MSH), which is an agonist at the MC3 receptor (MC3R). Compounds can be evaluated for their ability to inhibit Nle4, D-Phe7-α-MSH binding to membranes from cells expressing the MC3R using a competition binding assay versus [^125I] Nle4, D-Phe7-α-MSH.
Cells expressing the MC3R were subject to homogenisation and the membrane fragment isolated by differential centrifugation. CHO-CRE MC3R cell membranes were coupled to PVT-PEI-WGA SPA Beads type A for 2 hours, spun at 1000 RPM for 5 mins and suspended to a final assay concentration of 800 ug bead/ml (1.2 ug membrane, 40 ug bead per well). Bead/membrane mix was incubated with 0.06 nM Nle4, D-Phe7-α-MSH and 11 half-log concentrations of competitor ligand, in duplicate, in a total volume of 50 μl buffer per well (25 mM HEPES, 1 mM MgCl2, 2.5 mM CaCl2, 1% Pluronic F68, 1 complete EDTA protease inhibitor tablet/50 ml pH7).
Non-specific binding was determined by the inclusion of 100 nM SHU9119. The reaction was initiated by the addition of bead/membranes and plates were incubated at room temperature for 12 hours (the first hour on a plate shaker), after which the amount of radioactivity present was determined using a Wallac plate counter. Ki values were determined by data analysis using appropriate software.

Test [2] deals with T1, MC4 receptor (MC4R). Kind of test: AGRP inhibition: competition binding vs [125I]AGRP(87-132) at CHO-CRE MC4R cell membranes. To be noted: vs 0.3 nM [125I]AGRP(87-132). The source says:
Agouti related protein (AGRP) is a high affinity endogenous antagonist/inverse agonist for the MC4 receptor (Lu et al., 1994, Nature 371: 799-802; Oilman et al., 1997, Science 278: 135-138). […] It has been ascertained that this C-terminal fragment of AGRP contains the MC4R binding determinants (Yang et al., 1999, Mol Endocrinol 13: 148-155), therefore, compounds can be evaluated for their ability to inhibit AGRP binding to membranes from cells expressing the MC4R using a competition binding assay versus [^125I]AGRP(87-132). To this end cells expressing the MC4R were subject to homogenisation and the membrane fragment isolated by differential centrifugation. CHO-CRE MC4R cell membranes (12 μg protein) were incubated with 0.3 nM [^125I]AGRP(87-132) and 11 half-log concentrations of competitor ligand, in duplicate, in a total volume of 100 μl buffer (25 mM HEPES, 1 mM MgCl2, 2.5 mM CaCl2, 0.5% BSA pH 7.0). Non-specific binding was determined by the inclusion of 1 μM SHU9119. The reaction was initiated by the addition of membranes and plates were incubated at room temperature for 2 hours. The reaction was terminated by rapid filtration onto GF/C filters (presoaked in 1% PEI) using a vacuum harvester followed by five 200 μl washes of ice cold wash buffer (Binding buffer containing 500 mM NaCl). The filters were soaked in 50 μl scintillation fluid and the amount of radioactivity present was determined by liquid scintillation counting. Ki values were determined by data analysis using appropriate software.

Bounds are passed on as bounds.

Sequence of MC4 receptor (P32245 whole entry): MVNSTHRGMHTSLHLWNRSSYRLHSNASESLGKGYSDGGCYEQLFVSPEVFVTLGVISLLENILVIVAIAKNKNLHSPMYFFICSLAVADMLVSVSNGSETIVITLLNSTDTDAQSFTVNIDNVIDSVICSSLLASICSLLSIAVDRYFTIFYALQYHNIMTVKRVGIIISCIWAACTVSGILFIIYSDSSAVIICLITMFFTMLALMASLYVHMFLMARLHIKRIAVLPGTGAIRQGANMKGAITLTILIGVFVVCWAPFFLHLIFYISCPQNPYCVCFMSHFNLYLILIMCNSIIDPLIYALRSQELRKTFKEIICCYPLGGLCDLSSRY
T1 sequence (P32245 whole entry): as above
T2 sequence (P41968 whole entry): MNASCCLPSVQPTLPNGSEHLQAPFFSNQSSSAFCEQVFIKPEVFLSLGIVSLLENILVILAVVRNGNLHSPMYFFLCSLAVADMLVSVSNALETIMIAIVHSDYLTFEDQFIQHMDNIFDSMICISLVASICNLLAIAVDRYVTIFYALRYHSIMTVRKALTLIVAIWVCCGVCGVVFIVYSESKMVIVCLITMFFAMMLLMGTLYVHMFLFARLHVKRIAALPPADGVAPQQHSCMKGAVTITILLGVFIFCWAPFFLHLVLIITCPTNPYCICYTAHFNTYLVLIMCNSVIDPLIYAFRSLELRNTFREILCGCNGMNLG

As usually defined, the EC50 is the concentration at which the effect is half-maximal. Higher therefore signals lower potency in that assay. In general, Ki refers to a dissociation constant, usually derived from enzyme kinetics or from competition with a known ligand. As to `C[C@@H]1CN(C(=O)[C@@H]2CN(c3ccc(C#N)nn3)C[C@H]2c2ccc(Cl)cn2)C[C@H](C)[C@@]1(O)c1ccc(F)cc1` [Example 2, 6-[(3S,4S)-3-(5-Chloropyridin-2-yl)-4-{[(3R,4R,5S)-4-(4-fluorophenyl)-4-hydroxy-3,5-dimethylpiperidin-1-yl]carbonyl}pyrrolidin-1-yl]pyridazine-3-carbonitrile], the EC50 on MC4 receptor amounted to 4.53 nM. Moreover, the Ki at MC4 receptor (MC4R) [1] came out at 27 nM; on MC3 receptor (MC3R) it was 124 nM; at MC4 receptor (MC4R) [2] it was 59 nM.

In turn, `C[C@@H]1CN(C(=O)[C@@H]2CN(c3ccc(=O)n(C)n3)C[C@H]2c2ccc(Cl)cn2)C[C@H](C)[C@@]1(O)c1ccc(Cl)cn1` [Example 10] gave an EC50 at MC4 receptor of 11.9 nM. Also, the Ki on MC4 receptor (MC4R) [1] came to 276 nM; on MC3 receptor (MC3R), 977 nM; at MC4 receptor (MC4R) [2], 223 nM.

The molecule `C[C@@H]1CN(C(=O)[C@@H]2CN(c3ccc(=O)n(C)n3)C[C@H]2c2ccc(Cl)cn2)C[C@H](C)[C@@]1(O)C1CCCCC1` [Example 17] displayed an EC50 on MC4 receptor of 1.59 nM. Further, the inhibition constant Ki was 112 nM on MC4 receptor (MC4R) [1], 332 nM on MC3 receptor (MC3R) and 20 nM on MC4 receptor (MC4R) [2].

`CC1CN(C(=O)C2CN(c3ccc(=O)n(C)n3)CC2c2ccc(Cl)cn2)CC(C)C1(O)c1ccc(F)c(F)c1` (centres unmarked) [Example 19] returned a half-maximal effective concentration (EC50) at MC4 receptor of 6.5 nM. For the same molecule, the Ki at MC4 receptor (MC4R) [1] was 85.4 nM; at MC3 receptor (MC3R), 568 nM; on MC4 receptor (MC4R) [2] it was 79 nM.

Turning to `COc1ccc(C2(O)C(C)CN(C(=O)C3CN(c4ccc(=O)n(C)n4)CC3c3ccc(Cl)cn3)CC2C)cc1` (centres unmarked) [Example 20], on MC4 receptor, a half-maximal effect (EC50) was put at 16.4 nM. Besides, the Ki on MC4 receptor (MC4R) [1] was 251 nM; on MC3 receptor (MC3R), 1020 nM; on MC4 receptor (MC4R) [2], 253 nM.

On to `CC1CN(C(=O)C2CN(c3ccc(=O)n(C)n3)CC2c2ccc(Cl)cn2)CC(C)C1(O)c1ccc(Cl)cc1` (centres unmarked) [Example 23], for which it took 4.75 nM to reach a half-maximal effect on MC4 receptor (EC50). Also, the results for the Ki on MC4 receptor (MC4R) [1], on MC3 receptor (MC3R) and at MC4 receptor (MC4R) [2] were 65.7 nM, 264 nM and 79 nM, respectively.

With `CC1CN(C(=O)C2CN(c3cncc(F)c3)CC2c2ccc(Cl)cn2)CC(C)C1(O)c1ccc(F)cc1` (centres unmarked) [Example 25], the EC50 on MC4 receptor amounted to 12.4 nM. Further, the values for the Ki on MC4 receptor (MC4R) [1], on MC3 receptor (MC3R) and on MC4 receptor (MC4R) [2] were 10.9 nM, less than 0.105 nM and 278 nM, respectively.

Take `C[C@@H]1CN(C(=O)[C@@H]2CN(c3ccc(C#N)nn3)C[C@H]2c2ccc(F)cn2)C[C@H](C)[C@@]1(O)c1ccc(Cl)cc1` [Example 32]: at MC4 receptor, the concentration giving a half-maximal response (EC50) turned out to be 8.78 nM. Besides, the Ki on MC4 receptor (MC4R) [1] worked out at 150 nM; at MC3 receptor (MC3R) it was 456 nM; on MC4 receptor (MC4R) [2], 160 nM.

(Values after patent US8138188B2, “Melanocortin type 4 receptor agonist piperidinoylpyrrolidines” (Pfizer Inc., priority 2006, dated 2012).)
